From US8309546B2, “Morpholinopurine derivatives” (Daiichi Sankyo Company, Limited, priority 2008, dated 2012)

Tests used:
[1] = test system: human ovary cancer cell strain IGROV1; assay: Cell growth inhibition test (MTT), IGROV1; format: cell-based; settings: IGROV-1, 72 h, IGROV1, 3 days culture, read-out: concentration exhibiting anti-cell effect (GI50)
Procedure: (§1) After a cultured cancer cell strain was treated with a test compound for a predetermined period, a cell growth inhibition test was performed by measuring the living cell count by the 3-(4,5-dimethylthiazol-2-yl)-2,5-diphenyltetrazoliumbromide (MTT) method.
(§2) Human endometrial cancer cell strain AN3CA, human ovary cancer cell strain IGROV1, and human colon cancer cell strain HT29 were seeded in a 96-well plate at 5000, 1000, and 5000 cells, respectively, per well. On the following day of seeding, a test compound having a predetermined concentration was added and the culture was continued at 37° C. in 5% CO2 for 3 days. On the final day of culture, an MTT reaction solution was added and the resulting mixture was reacted for 4 hours to form formazan by dehydrogenases contained in living cells. Subsequently, the culture broth was removed, DMSO was added to solubilize formazan, and the amount of produced formazan was determined by measuring absorbance at 540 nm using a microplate reader.
(§3) Since correlations of the amount of produced formazan and the living cell count had been confirmed, the cell growth rate was calculated by the following formula. Cell growth rate (T/C %) after addition of test compound=100×[(B−C)/(A−C)] A: Absorbance of well not containing test compound (final culture day) B: Absorbance of well containing test compound (final culture day) C: Absorbance of well immediately before addition of test compound (following day of cell seeding)
(§4) Furthermore, the cell growth rate at each concentration of serially diluted test compound solutions was obtained, and the concentration of the test compound resulting in a 50% growth rate was obtained as the GI50 value from two concentrations including 50% therebetween and the growth rates were selected.

PI3Kα = PI3Kα (Homo sapiens, UniProt P42336); assay: PI3K kinase activity inhibition assay; format: biochemical; settings: Kinase-Glo Plus ATP detection, read-out: IC50 against PI3K
PI3Kα, sequence (P42336 whole entry, species assumed): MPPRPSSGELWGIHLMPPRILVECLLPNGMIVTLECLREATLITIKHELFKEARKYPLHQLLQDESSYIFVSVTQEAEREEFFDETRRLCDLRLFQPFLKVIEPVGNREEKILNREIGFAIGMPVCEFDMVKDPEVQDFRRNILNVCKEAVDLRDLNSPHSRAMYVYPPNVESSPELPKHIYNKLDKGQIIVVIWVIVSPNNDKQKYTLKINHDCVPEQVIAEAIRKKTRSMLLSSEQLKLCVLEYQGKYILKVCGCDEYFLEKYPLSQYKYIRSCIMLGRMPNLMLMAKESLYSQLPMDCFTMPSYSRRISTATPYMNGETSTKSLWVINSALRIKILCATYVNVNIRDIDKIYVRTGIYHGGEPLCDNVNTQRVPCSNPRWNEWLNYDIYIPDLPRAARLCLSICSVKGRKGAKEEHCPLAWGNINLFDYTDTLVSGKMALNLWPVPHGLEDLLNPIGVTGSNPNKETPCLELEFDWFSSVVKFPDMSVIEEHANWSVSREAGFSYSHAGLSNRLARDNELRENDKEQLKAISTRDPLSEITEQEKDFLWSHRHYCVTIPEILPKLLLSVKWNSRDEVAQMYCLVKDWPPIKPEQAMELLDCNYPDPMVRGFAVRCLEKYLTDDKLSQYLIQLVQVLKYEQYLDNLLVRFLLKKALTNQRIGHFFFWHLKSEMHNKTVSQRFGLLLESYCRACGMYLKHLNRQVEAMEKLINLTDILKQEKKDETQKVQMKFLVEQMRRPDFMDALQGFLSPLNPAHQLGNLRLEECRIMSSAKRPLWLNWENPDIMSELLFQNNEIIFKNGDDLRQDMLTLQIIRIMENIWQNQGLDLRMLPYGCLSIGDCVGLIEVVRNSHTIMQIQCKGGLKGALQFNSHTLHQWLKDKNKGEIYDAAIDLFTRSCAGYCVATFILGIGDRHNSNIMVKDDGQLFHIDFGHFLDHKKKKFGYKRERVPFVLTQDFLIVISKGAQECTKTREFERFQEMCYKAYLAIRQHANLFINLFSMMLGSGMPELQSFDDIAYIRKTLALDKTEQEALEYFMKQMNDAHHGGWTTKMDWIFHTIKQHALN
PI3Kα, sequence (P27986 whole entry partner, species assumed): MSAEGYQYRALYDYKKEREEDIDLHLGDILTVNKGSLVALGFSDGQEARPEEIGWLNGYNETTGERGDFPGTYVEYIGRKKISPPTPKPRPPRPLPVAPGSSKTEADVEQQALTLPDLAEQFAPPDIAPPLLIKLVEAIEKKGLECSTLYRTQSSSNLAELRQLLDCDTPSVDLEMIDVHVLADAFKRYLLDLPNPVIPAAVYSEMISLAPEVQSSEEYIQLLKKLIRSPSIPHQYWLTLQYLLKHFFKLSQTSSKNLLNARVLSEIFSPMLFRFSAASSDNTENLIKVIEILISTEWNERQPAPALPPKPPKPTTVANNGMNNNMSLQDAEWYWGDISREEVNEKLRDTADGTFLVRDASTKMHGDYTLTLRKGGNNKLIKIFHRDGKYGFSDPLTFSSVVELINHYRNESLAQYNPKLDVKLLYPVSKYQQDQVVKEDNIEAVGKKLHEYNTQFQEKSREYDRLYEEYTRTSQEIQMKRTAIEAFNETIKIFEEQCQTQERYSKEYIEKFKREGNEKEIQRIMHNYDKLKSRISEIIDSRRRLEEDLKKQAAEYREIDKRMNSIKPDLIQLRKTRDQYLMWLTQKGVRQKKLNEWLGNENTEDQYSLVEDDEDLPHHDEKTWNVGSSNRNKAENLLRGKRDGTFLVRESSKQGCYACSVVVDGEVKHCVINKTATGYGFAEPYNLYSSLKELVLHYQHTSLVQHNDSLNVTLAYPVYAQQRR
Procedure: PI3Kα kinase activity was determined in the presence and absence of a test compound. The test compound was dissolved in DMSO and diluted serially with an ATP solution (30 μm ATP, 50 mM HEPES, pH 7.4, 50 mM NaCl, 0.05% CHAPS, 10 mM MgCl2, and 5 mM dithiothreitol [DTT]). First, 7 μl each of the serially diluted test compound solutions was added to each well of a black 384-well plate. Subsequently, 7 μl of a phosphatidylinositol 4,5-bisphosphate (PIP2) solution (45 μm PIP2, 50 mM HEPES, pH 7.4, 50 mM NaCl, 0.05% CHAPS, 10 mM MgCl2, and 5 mM DTT) was added to each well of the 384-well plate. Finally, 7 μl of a solution containing PI3Kα (50 nM PI3Kα, 50 mM HEPES, pH 7.4, 50 mM NaCl, 0.05% CHAPS, 10 mM MgCl2, and 5 mM DTT) was added to each well of the 384-well plate to initiate a reaction. The mixture was reacted at room temperature for 2 hours and then 21 μl of the Kinase-Glo Plusreagent (Promega) was, added to each well of the 384-well plate to terminate the reaction. After the termination of the reaction, the solution was left standing for 15 minutes and then luminescence was measured with ARVO (PerkinElmer Co., Ltd.) to detect ATP remaining in the reaction solution.
The amount of ATP consumed in the reaction was obtained for each well and used as an indicator of PI3Kαkinase activity. The PI3Kα kinase activity in wells not containing the test compound was calculated by the following formula (1). Furthermore, the PI3Kα kinase activity in wells containing the test compound was calculated by the following formula (2). The PI3Kα inhibitory activity (%) of the test compound was calculated by the following formula (3). PI3Kα kinase activity in wells not containing the test compound=B−C (1) PI3Kα kinase activity in wells containing the test compound=B−P (2) PI3Kα inhibitory activity (%) of test compound=100−100×[(B−P)/(B−C)] (3) B: Measured value in wells not containing PI3Kα or the test compound C: Measured value in wells containing PI3Kα and not containing the test compound P: Measured value in wells containing PI3Kα and the test compound
Furthermore, an optimal curve was calculated with Graph Pad Prism 4 using concentrations of the serially diluted test compound solutions and PI3Kα inhibitory activity (%) at each concentration to obtain the concentration showing 50% inhibition as the IC50 value of PI3Kα inhibitory activity.

[2] = test system: human endometrial cancer cell strain AN3CA; assay: Cell growth inhibition test (MTT), AN3CA; format: cell-based; settings: AN3-CA, 72 h, 3 days culture, read-out: concentration exhibiting anti-cell effect (GI50)
Procedure: as §1, §2, §3, §4

[3] = test system: human colon cancer cell strain HT29; assay: Cell growth inhibition test (MTT), HT29; format: cell-based; settings: HT-29, 72 h, HT29, 3 days culture, read-out: concentration exhibiting anti-cell effect (GI50)
Procedure: as §1, §2, §3, §4

[4] = target: T1, human mTOR (His-tagged mTOR (1362C)) (Homo sapiens, UniProt P42345); assay: mTOR kinase activity inhibition assay; format: biochemical; settings: HTRF, read-out: IC50 against mTOR
T1 construct: the 1362 to 2549 amino acid portion on the C terminus side of human mTOR; His tag (N); made in house
T1 sequence (P42345 1362-2549): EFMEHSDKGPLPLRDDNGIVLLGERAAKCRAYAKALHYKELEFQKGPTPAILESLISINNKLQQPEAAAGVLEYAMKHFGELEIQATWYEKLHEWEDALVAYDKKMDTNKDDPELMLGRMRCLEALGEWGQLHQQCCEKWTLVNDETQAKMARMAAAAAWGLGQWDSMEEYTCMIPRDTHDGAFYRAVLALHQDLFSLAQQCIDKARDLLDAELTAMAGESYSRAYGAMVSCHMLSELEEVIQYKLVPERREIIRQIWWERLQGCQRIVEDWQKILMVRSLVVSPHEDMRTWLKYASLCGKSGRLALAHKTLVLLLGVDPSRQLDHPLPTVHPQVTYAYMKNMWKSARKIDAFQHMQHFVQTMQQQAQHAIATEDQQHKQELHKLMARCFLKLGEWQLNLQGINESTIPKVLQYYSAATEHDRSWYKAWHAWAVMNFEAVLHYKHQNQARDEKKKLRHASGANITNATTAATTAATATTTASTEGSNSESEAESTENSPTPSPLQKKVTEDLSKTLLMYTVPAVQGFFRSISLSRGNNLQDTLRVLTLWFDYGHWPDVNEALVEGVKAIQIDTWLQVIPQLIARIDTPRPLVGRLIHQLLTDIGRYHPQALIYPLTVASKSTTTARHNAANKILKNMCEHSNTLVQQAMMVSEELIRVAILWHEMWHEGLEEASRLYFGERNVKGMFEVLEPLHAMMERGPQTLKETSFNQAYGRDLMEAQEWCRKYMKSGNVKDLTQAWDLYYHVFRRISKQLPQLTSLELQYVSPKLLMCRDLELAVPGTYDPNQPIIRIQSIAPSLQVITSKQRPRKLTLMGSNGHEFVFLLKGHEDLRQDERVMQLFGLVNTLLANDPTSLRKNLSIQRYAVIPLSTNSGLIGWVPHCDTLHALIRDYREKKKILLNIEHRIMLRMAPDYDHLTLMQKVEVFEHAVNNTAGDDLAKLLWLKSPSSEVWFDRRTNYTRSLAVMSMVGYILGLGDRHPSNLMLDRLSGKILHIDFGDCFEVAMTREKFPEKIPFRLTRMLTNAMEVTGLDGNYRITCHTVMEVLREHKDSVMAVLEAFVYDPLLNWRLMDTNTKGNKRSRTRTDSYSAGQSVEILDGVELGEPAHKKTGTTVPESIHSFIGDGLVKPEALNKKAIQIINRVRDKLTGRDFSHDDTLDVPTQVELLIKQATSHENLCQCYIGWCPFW
Procedure: The mTOR kinase activity was determined in the presence and absence of a test compound. A substrate peptide is phosphorylated by mTOR kinase activity. A complex of streptavidin-XL665 and anti-phosphorylated S6K (Thr389) antibody-anti-mouse IgG-cryptate binds to this phosphorylated peptide. At this time, irradiation of excitation light induces transfer of fluorescence resonance energy from the excited cryptate to XL665, emitting fluorescence at 665 nm. Utilizing this principle, mTOR kinase activity was detected. When the mTOR inhibitor is present, phosphorylation of a substrate peptide is inhibited, and the biding of the above-mentioned complex to the substrate peptide is inhibited.
A His tag was introduced into the N terminus end of the 1362 to 2549 amino acid portion on the C terminus side of human mTOR, and a cell line was prepared, so that His-tagged mTOR should be constantly expressed in a HEK293 cell. A cell lysate was prepared from this HEK293 cell which constantly expressed His-tagged mTOR (1362C), and a crude product of His-tagged mTOR (1362C) was obtained by a usual method utilizing His tag.
Subsequently, an mTOR enzyme solution was prepared which contained the above-mentioned His-tagged mTOR (1362C) enzyme and 8 μg/ml biotinylated peptide (Biotin-Ahx-[…]-amide [Sigma]), as well as 50 mM HEPES (pH 7.5), 20 mM MnCl2, 1 mg/ml BSA, a suitable amount of protease inhibitor cocktail (Complete EDTA free, Roche Ltd.), 100 ng/ml calyculin A, and 4 μg/ml cantharidin as other components.
The test compound was dissolved in dimethyl sulfoxide (DMSO) and serially diluted with 20 μm ATP solution (50 mM HEPES (pH 7.5), 20 μM ATP) to obtain concentrations required for the assay. 5 μl of this compound solution was added to each well of a 384-well small volume white plate manufactured by Greiner Bio-One Co., Ltd.
5 μl of the mTOR enzyme solution was added to the above-mentioned well containing the test compound and the resulting mixture was left standing for 3 hours room temperature to proceed an enzymatic reaction.
The same procedure was performed using a solution obtained by dissolving DMSO in 20 μM ATP solution as a positive control and a solution obtained by dissolving DMSO in 50 mM HEPES buffer (pH 7.5) as a negative control.
After the enzymatic reaction, 5 μl each of an europium solution (a solution obtained by dissolving anti-mouse IgG-cryptate [SCETI Medical Labo K.K.] and anti-phosphorylation S6K [Thr389] antibody [Cell Signaling Technology Inc.] in 50 mM HEPES [pH 7.5], 100 mM EDTA, and 1.5 mg/ml BSA) and an XL665 solution (a solution obtained by dissolving Streptavidin-XL 665 [SCETI Medical Labo K.K.] in 50 mM HEPES [pH 7.5], 100 mM EDTA, 0.8 M KF, and 1.5 mg/ml BSA) were added in this order and mixed and the resulting mixture was left standing overnight at 4° C. On the following day, the mixture was returned to room temperature and then irradiated with 337-nm excitation light and fluorescence at 620 and 665 nm was measured with RUBYstar (BMG LABTECH JAPAN Ltd.).
mTOR inhibitory activity (%) was calculated using the ratio calculated from the measured values as an indicator of enzyme activity. Here, the ratio was calculated by the following formula (1). Ratio=10,000×fluorescence at 665 nm/fluorescence at 620 nm (1)
mTOR enzyme inhibitory activity (%) was calculated by the following formula (2). mTOR enzyme inhibitory activity (%)=100×[(P−S)/(P−N)] (2) P: Ratio in positive control well N: Ratio in negative control well S: Ratio in well containing the test compound
Furthermore, an optimal curve was created using the concentrations of the serially diluted test compound solutions and mTOR enzyme inhibitory activity (%) at each concentration to obtain the concentration showing 50% inhibition as the IC50 value of mTOR enzyme inhibitory activity.

| GI50 [1] | IC50 (PI3Kα) | GI50 [2] | GI50 [3] | IC50 [4] | SMILES |
| --- | --- | --- | --- | --- | --- |
| ≤ 5000 nM | 20 to 50 nM | ≤ 5000 nM | ≤ 5000 nM | 100 to 500 nM | C[C@@H]1CN(c2nc3c(N4CCOCC4)nc(-c4cnc(N)nc4)nc3n2[C@H]2CCN(S(C)(=O)=O)C2)C[C@H](C)N1 [Example 26, 5-{8-(cis-3,5-Dimethylpiperazin-1-yl)-9-[(3S)-1-(methylsulfonyl)pyrrolidin-3-yl]-6-morpholin-4-yl-9H-purin-2-yl}pyrimidin-2-amine] |
| ≤ 5000 nM | 10 to 20 nM | ≤ 5000 nM | ≤ 5000 nM | 30 to 100 nM | CC(C)Cn1c(N2C[C@H](C)NC[C@H]2C)nc2c(N3CCOCC3)nc(-c3cnc(N)nc3)nc21 (relative stereo) [Example 50, 5-[8-(trans-2,5-Dimethylpiperazin-1-yl)-9-isobutyl-6-morpholin-4-yl-9H-purin-2-yl]pyrimidin-2-amine] |
| ≤ 5000 nM | < 10 nM | ≤ 5000 nM | ≤ 5000 nM | 10 to 30 nM | C[C@@H]1CN(c2nc3c(N4CCOCC4)nc(-c4cnc(N)nc4)nc3n2CC(F)(F)F)CCN1 [Example 59, 5-{8-[(3R)-3-Methylpiperazin-1-yl]-6-morpholin-4-yl-9-(2,2,2-trifluoroethyl)-9H-purin-2-yl}pyrimidin-2-amine] |
| ≤ 5000 nM | < 10 nM | ≤ 5000 nM | ≤ 5000 nM | 30 to 100 nM | CC(C)Cn1c(N2CCN[C@H](C)C2)nc2c(N3CCOCC3)nc(-c3cnc(N)nc3)nc21 [Example 52, 5-{9-Isobutyl-8-[(3R)-3-methylpiperazin-1-yl]-6-morpholin-4-yl-9H-purin-2-yl}pyrimidin-2-amine] |
| ≤ 5000 nM | < 10 nM | ≤ 5000 nM | ≤ 5000 nM | 100 to 500 nM | CS(=O)(=O)N1CCN(c2nc3c(N4CCOCC4)nc(-c4cnc(N)nc4C(F)(F)F)nc3n2CC2CC2)CC1 [Example 7, 5-{9-(Cyclopropylmethyl)-8-[4-(methylsulfonyl)piperazin-1-yl]-6-morpholin-4-yl-9H-purin-2-yl}-4-(trifluoromethyl)pyrimidin-2-amine] |
| ≤ 5000 nM | 20 to 50 nM | ≤ 5000 nM | ≤ 5000 nM | 100 to 500 nM | Cc1nc(N)ncc1-c1nc(N2CCOCC2)c2nc(N3C[C@@H](C)N[C@@H](C)C3)n(CC3CC3)c2n1 [Example 15, 5-[9-(Cyclopropylmethyl)-8-(cis-3,5-dimethylpiperazin-1-yl)-6-morpholin-4-yl-9H-purin-2-yl]-4-methylpyrimidin-2-amine] |
| ≤ 5000 nM | 10 to 20 nM | ≤ 5000 nM | ≤ 5000 nM | 100 to 500 nM | CN(C)CCNc1nc2c(N3CCOCC3)nc(-c3cnc(N)nc3)nc2n1CC1CC1 [Example 28, N′-[2-(2-Aminopyrimidin-5-yl)-9-(cyclopropylmethyl)-6-morpholin-4-yl-9H-purin-8-yl]-N,N-dimethylethane-1,2-diamine] |
| ≤ 5000 nM | < 10 nM | ≤ 5000 nM | ≤ 5000 nM | ≥ 500 nM | Cc1nc(N)ncc1-c1nc(N2CCOCC2)c2nc(N3CC[C@H](NS(C)(=O)=O)C3)n(CC3CC3)c2n1 [Example 73, N-{(3S)-1-[2-(2-Amino-4-methylpyrimidin-5-yl)-9-(cyclopropylmethyl)-6-morpholin-4-yl-9H-purin-8-yl]pyrrolidin-3-yl}methanesulfonamide] |
| ≤ 5000 nM | < 10 nM | ≤ 5000 nM | ≤ 5000 nM | < 10 nM | C[C@@H]1CN(c2nc3c(N4CCOCC4)nc(-c4cnc(N)nc4)nc3n2CC(F)(F)F)CCN1C(=O)CO [Example 126, 2-{(2R)-4-[2-(2-Aminopyrimidin-5-yl)-6-morpholin-4-yl-9-(2,2,2-trifluoroethyl)-9H-purin-8-yl]-2-methylpiperazin-1-yl}-2-oxoethanol] |
| ≤ 5000 nM | 20 to 50 nM | ≤ 5000 nM | ≤ 5000 nM | 30 to 100 nM | CS(=O)(=O)N1CCN(c2nc3c(N4CCOCC4)nc(-c4cnc(N)nc4)nc3n2[C@H]2CCN(S(C)(=O)=O)C2)CC1 [Example 27, 5-{8-[4-(Methylsulfonyl)piperazin-1-yl]-9-[(3S)-1-(methylsulfonyl)pyrrolidin-3-yl]-6-morpholin-4-yl-9H-purin-2-yl}pyrimidin-2-amine] |
